Experimental data: patent US11066414B2, “Cot modulators and methods of use thereof” (Gilead Sciences, Inc., priority 2015, dated 2021)
Like-named read-outs stand apart in the source and are kept apart here.

Assays:
TNFα = test: Cot Monocyte TNFα Cell Based Assay
Human Cot = Human Cot (Homo sapiens (Human), UniProt P41279); test: High Throughput Cot Biochemical Assay; details: Cot HTRF (TR-FRET) biochemical assay
[1] = Homo sapiens, Monocyte, read-out: EC50 TNF, LPS-stimulated human monocytes, TNFα
[2] = read-out: EC50 TNF, LPS-stimulated human monocytes, TNFα

Chain of Human Cot (P41279 30-397): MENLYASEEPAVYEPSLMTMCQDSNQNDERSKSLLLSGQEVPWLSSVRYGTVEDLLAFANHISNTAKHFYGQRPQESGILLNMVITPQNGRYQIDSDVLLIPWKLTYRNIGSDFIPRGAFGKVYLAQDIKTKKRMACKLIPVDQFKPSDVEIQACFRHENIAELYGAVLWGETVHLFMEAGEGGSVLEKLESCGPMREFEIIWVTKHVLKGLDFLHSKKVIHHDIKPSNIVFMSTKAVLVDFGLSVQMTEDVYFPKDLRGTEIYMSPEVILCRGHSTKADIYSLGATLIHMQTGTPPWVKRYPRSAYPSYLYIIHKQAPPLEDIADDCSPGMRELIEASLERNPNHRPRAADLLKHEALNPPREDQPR

SMILES	EC50 (TNFα; [1]) [nM]	IC50 (Human Cot; IC50 HTRF) [nM]	EC50 (TNFα; [2]) [nM]	IC50 (Human Cot; read-out: IC50 HTRF) [nM]
Cc1nc(F)ccc1[C@H](Nc1cc(Cl)c2ncc(C#N)c(NCC(C)(C)C)c2c1)c1cn(C2CC(F)(F)C2)nn1 [Example 645, (S)-8-chloro-6-(((1-(3,3-difluorocyclobutyl)-1H-1,2,3-triazol-4-yl)(6-fluoro-2-methylpyridin-3-yl)methyl)amino)-4-(neopentylamino)quinoline-3-carbonitrile]	66	11	–	–
Cc1nc(F)ccc1[C@H](Nc1cc(Cl)c2ncc(C#N)c(NCC(C)(C)C)c2c1)c1cn(C23CC(C2)C3)nn1 [Example 646, (S)-6-(((1-(bicyclo[1.1.1]pentan-1-yl)-1H-1,2,3-triazol-4-yl)(6-fluoro-2-methylpyridin-3-yl)methyl)amino)-8-chloro-4-(neopentylamino)quinoline-3-carbonitrile]	40	3	–	–
Cc1nc(F)ccc1[C@H](Nc1cc(Cl)c2ncc(C#N)c(NCC(C)(C)C)c2c1)c1cn(C2(CO)COC2)nn1 [Example 648, (S)-8-chloro-6-(((6-fluoro-2-methylpyridin-3-yl)(1-(3-(hydroxymethyl)oxetan-3-yl)-1H-1,2,3-triazol-4-yl)methyl)amino)-4-(neopentylamino)quinoline-3-carbonitrile]	114	3	–	–
[2H][C@@](Nc1cc(Cl)c2ncc(C#N)c(NCC(C)(C)C)c2c1)(c1cn(C2CC2)nn1)c1cccnc1N(C)C [Example 650, (S)-8-chloro-6-(((1-cyclopropyl-1H-1,2,3-triazol-4-yl)(2-(dimethylamino)pyridin-3-yl)methyl-d)amino)-4-(neopentylamino)quinoline-3-carbonitrile]	1000	179	–	–
CC(C)(C)CNc1c(C#N)cnc2c(Cl)cc(N[C@H](c3cn(C4(C(F)F)CC4)nn3)c3ccc(F)c4cnccc34)cc12 [Example 652, (S)-8-chloro-6-(((1-(1-(difluoromethyl)cyclopropyl)-1H-1,2,3-triazol-4-yl)(8-fluoroisoquinolin-5-yl)methyl)amino)-4-(neopentylamino)quinoline-3-carbonitrile]	40	4	–	–
Cc1nc(F)ccc1[C@H](Nc1cc(Cl)c2ncc(C#N)c(NCC(C)(C)C)c2c1)c1cn(Cc2c(F)cccc2F)nn1 [Example 654, (S)-8-chloro-6-(((1-(2,6-difluorobenzyl)-1H-1,2,3-triazol-4-yl)(6-fluoro-2-methylpyridin-3-yl)methyl)amino)-4-(neopentylamino)quinoline-3-carbonitrile]	36	3	–	–
Cn1ncc2c([C@H](Nc3cc(C#N)c4ncc(C#N)c(NCC(C)(C)C)c4c3)c3cn(Cc4c(F)cccc4F)nn3)cccc21 [Example 656]	–	–	86	4
Cc1cncc2cccc([C@H](Nc3cc(Cl)c4ncc(C#N)c(NCC(C)(C)C)c4c3)c3cn(C4(C(F)(F)F)CC4)nn3)c12 [Example 659, (S)-8-chloro-6-(((4-methylisoquinolin-5-yl)(1-(1-(trifluoromethyl)cyclopropyl)-1H-1,2,3-triazol-4-yl)methyl)amino)-4-(neopentylamino)quinoline-3-carbonitrile]	279	41	–	–
Cc1ccnc2cccc([C@H](Nc3cc(Cl)c4ncc(C#N)c(NCC(C)(C)C)c4c3)c3cn(C4(C(F)(F)F)CC4)nn3)c12 [Example 660, (S)-8-chloro-6-(((4-methylquinolin-5-yl)(1-(1-(trifluoromethyl)cyclopropyl)-1H-1,2,3-triazol-4-yl)methyl)amino)-4-(neopentylamino)quinoline-3-carbonitrile]	839	43	–	–
Cc1nc(F)ccc1[C@H](Nc1cc(C#N)c2ncc(C#N)c(NCC(C)(C)C)c2c1)c1cn(C(F)(F)CO)nn1 [Example 661, (S)-6-(((1-(1,1-difluoro-2-hydroxyethyl)-1 H-1,2,3-triazol-4-yl)(6-fluoro-2-methylpyridin-3-yl)methyl)amino)-4-(neopentylamino)quinoline-3,8-dicarbonitrile]	103	2	–	–
Cc1nc(F)ccc1[C@H](Nc1cc(Cl)c2ncc(C#N)c(NCC(C)(C)C)c2c1)c1nnn(C2CC2)c1Cl [Example 662, (S)-8-chloro-6-(((5-chloro-1-cyclopropyl-1H-1,2,3-triazol-4-yl)(6-fluoro-2-methylpyridin-3-yl)methyl)amino)-4-(neopentylamino)quinoline-3-carbonitrile]	335	6	–	–
Cc1nc(F)ccc1[C@H](Nc1cc(Cl)c2ncc(C#N)c(NCC(C)(C)C)c2c1)c1nnn(C2CC2)c1F [Example 663, (S)-8-chloro-6-(((1-cyclopropyl-5-fluoro-1H-1,2,3-triazol-4-yl)(6-fluoro-2-methylpyridin-3-yl)methyl)amino)-4-(neopentylamino)quinoline-3-carbonitrile]	62	3	–	–
Cn1nccc1[C@H](Nc1cc(Cl)c2ncc(C#N)c(NCC(C)(C)C)c2c1)c1cn(C2(C(F)F)CC2)nn1 [Example 665, (S)-8-chloro-6-(((1-(1-(difluoromethyl)cyclopropyl)-1H-1,2,3-triazol-4-yl)(1-methyl-1H-pyrazol-5-yl)methyl)amino)-4-(neopentylamino)quinoline-3-carbonitrile]	198	6	–	–
Cc1nc(F)ccc1[C@H](Nc1cc(Cl)c2ncc(C#N)c(N[C@@H]3CCOCC3(C)C)c2c1)C1=CN(C2(C3CC3)CC2)NN1 [Example 669]	–	–	7	1

The remaining lines, values ahead:

EC50 (TNFα; [1]) [nM]	IC50 (Human Cot; IC50 HTRF) [nM]	EC50 (TNFα; [2]) [nM]	IC50 (Human Cot; read-out: IC50 HTRF) [nM]	SMILES
102	5	–	–	CC(C)(C)CNc1c(C#N)cnc2c(C#N)cc(N[C@H](c3cn(C4(C(F)(F)F)CC4)nn3)c3ccc(C#N)c4cnccc34)cc12 [Example 670, (S)-6-(((8-cyanoisoquinolin-5-yl)(1-(1-(trifluoromethyl)cyclopropyl)-1H-1,2,3-triazol-4-yl)methyl)amino)-4-(neopentylamino)quinoline-3,8-dicarbonitrile]
–	–	32	2	CC(C)(C)CNc1c(C#N)cnc2c(C#N)cc(N[C@H](c3cn(C4(C(F)F)CC4)nn3)c3ccc(F)c4ncccc34)cc12 [Example 671]
–	–	22	2	CC(C)(C)CNc1c(C#N)cnc2c(C#N)cc(N[C@H](c3cn(C4(C(F)F)CC4)nn3)c3ccc(F)c4cnccc34)cc12 [Example 672]
808	142	–	–	CC(C)(C)CNc1c(C#N)cnc2c(C#N)cc(N[C@H](c3cn(C4(C(F)(F)F)CC4)nn3)c3cncc4ccccc34)cc12 [Example 673, (S)-6-((isoquinolin-4-yl(1-(1-(trifluoromethyl)cyclopropyl)-1H-1,2,3-triazol-4-yl)methyl)amino)-4-(neopentylamino)quinoline-3,8-dicarbonitrile]
301	22	–	–	Cc1nc([C@H](Nc2cc(C#N)c3ncc(C#N)c(NCC(C)(C)C)c3c2)c2cn(C3(C(F)F)CC3)nn2)c(C)o1 [Example 674, (S)-6-(((1-(1-(difluoromethyl)-cyclopropyl)-1H-1,2,3-triazol-4-yl)(2,5-dimethyloxazol-4-yl)methyl)amino)-4-(neopentylamino)quinoline-3,8-dicarbonitrile]
–	–	7	1	Cc1nc(F)ccc1[C@H](Nc1cc(C#N)c2ncc(C#N)c(N[C@@H]3CCOCC3(C)C)c2c1)c1cn(C2(C3CC3)CC2)nn1 [Example 675]
112	6	–	–	CC(C)(C)CNc1c(C#N)cnc2c(Cl)cc(N[C@H](c3cn(C4(C(F)(F)F)CC4)nn3)c3cccc4c(=O)[nH]ccc34)cc12 [Example 676, (S)-8-chloro-4-(neopentylamino)-6-(((1-oxo-1,2-dihydroisoquinolin-5-yl)(1-(1-(trifluoromethyl)cyclopropyl)-1H-1,2,3-triazol-4-yl)methyl)amino)quinoline-3-carbonitrile]
–	–	133	4	Cn1nccc1[C@H](Nc1cc(C#N)c2ncc(C#N)c(NCC(C)(C)C)c2c1)c1cn(C2(C(F)F)CC2)nn1 [Example 677, (S)-6-(((1-(l-(difluoromethyl)-cyclopropyl)-1H-1,2,3-triazol-4-yl)(1-methyl-1H-pyrazol-5-yl)methyl)amino)-4-(neopentylamino)quinoline-3,8-dicarbonitrile]
131	5	–	–	Cn1nccc1[C@H](Nc1cc(C#N)c2ncc(C#N)c(NCC(C)(C)C)c2c1)c1cn(C2(C(F)(F)F)CC2)nn1 [Example 678, (S)-6-(((1-methyl-1H-pyrazol-5-yl)(1-(1-(trifluoromethyl)cyclopropyl)-1H-1,2,3-triazol-4-yl)methyl)amino)-4-(neopentylamino)quinoline-3,8-dicarbonitrile]
98	3	–	–	Cc1nc(F)ccc1[C@H](Nc1cc(C#N)c2ncc(C#N)c(NCC(C)(C)C)c2c1)c1nnn(C2CC2)c1Cl [Example 680, (S)-6-(((5-chloro-1-cyclopropyl-1H-1,2,3-triazol-4-yl)(6-fluoro-2-methylpyridin-3-yl)methyl)amino)-4-(neopentylamino)quinoline-3,8-dicarbonitrile]
26	2	–	–	Cc1nc(F)ccc1[C@H](Nc1cc(C#N)c2ncc(C#N)c(NCC(C)(C)C)c2c1)c1nnn(C2CC2)c1F [Example 681, (S)-6-(((1-cyclopropyl-5-fluoro-1H-1,2,3-triazol-4-yl)(6-fluoro-2-methylpyridin-3-yl)methyl)amino)-4-(neopentylamino)quinoline-3,8-dicarbonitrile]
–	–	66	7	CC(C)(C)CNc1c(C#N)cnc2c(Cl)cc(N[C@H](c3cn(C4(C5CC5)CC4)nn3)c3cccc4cnccc34)cc12 [Example 682, (S)-6-(((4-(1-(1-bi(cyclopropan)]-1-yl)-1H-1,2,3-triazol-4-yl)(isoquinolin-5-yl)methyl)amino)-8-chloro-4-(neopentylamino)quinoline-3-carbonitrile]
